Test results from US20190152992A1, “BENZODIOXANE DERIVATIVES AND THEIR PHARMACEUTICAL USE” (Orion Corporation, priority 2016, published 2019).
Counter-ions that a name gives are not always drawn.

How the values were obtained:
human alpha2A receptors = biological target: T1, human alpha2A receptors (Homo sapiens, UniProt P08913); test: cell-based
T1 sequence (P08913 1-465): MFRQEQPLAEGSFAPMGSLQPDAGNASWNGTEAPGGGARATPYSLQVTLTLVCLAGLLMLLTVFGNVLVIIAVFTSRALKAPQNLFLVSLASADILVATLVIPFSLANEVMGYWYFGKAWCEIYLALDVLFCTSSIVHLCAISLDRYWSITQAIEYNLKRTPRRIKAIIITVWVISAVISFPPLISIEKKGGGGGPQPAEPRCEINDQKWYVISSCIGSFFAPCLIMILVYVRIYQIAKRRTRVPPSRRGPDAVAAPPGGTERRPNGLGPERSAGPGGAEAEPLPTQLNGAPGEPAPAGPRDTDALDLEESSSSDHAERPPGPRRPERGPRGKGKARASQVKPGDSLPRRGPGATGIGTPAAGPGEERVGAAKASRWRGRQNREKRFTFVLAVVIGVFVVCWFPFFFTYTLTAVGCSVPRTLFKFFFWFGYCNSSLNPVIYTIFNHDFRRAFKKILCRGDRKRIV

human alpha2C receptors = biological target: T2, human alpha2C receptors (Homo sapiens, UniProt P18825); test: Determination of alpha2C antagonistic activity in vitro (FLIPR calcium assay); settings: for Kb: Alpha 2C Adrenaline Kb, Kb calculated from IC50 with the Cheng-Prusoff equation, adrenaline as agonist, CHO cells, human alpha2C
T2 sequence (P18825 1-462): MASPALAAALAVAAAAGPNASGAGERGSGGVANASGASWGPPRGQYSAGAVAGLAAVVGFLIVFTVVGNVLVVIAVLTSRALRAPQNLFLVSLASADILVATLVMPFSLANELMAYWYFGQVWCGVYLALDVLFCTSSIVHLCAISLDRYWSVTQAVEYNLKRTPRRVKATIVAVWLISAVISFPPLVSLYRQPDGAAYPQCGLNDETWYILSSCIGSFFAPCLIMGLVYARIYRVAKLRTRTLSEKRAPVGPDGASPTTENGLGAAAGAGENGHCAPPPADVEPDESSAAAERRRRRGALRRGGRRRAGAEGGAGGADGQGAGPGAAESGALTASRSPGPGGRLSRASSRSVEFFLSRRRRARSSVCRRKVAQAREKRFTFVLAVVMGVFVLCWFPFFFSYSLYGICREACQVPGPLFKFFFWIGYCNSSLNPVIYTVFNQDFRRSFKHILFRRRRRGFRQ
Method: Experiment 1: Determination of alpha2A and alpha2C Antagonistic Activity In Vitro
The growth medium was removed and the cells were incubated with the test compounds and the FLIPR Calcium 6 Assay reagent (Molecular Devices, CA, USA) for 2 h at 37° C. in dark. The test compounds (concentrations in cells 100 pM-10 μM) were dissolved in Probenecid-Ringer consisting of 150 mM NaCl, 3 mM KCl, 1.2 mM MgCl2, 1 mM CaCl2, 5 mM glucose, 20 mM HEPES and 2.5 mM probenecid (pH 7.4 adjusted with 1.0 M NaOH). […] All experiments were performed at 37° C. For agonism measurements the test compounds dissolved in Probenecid-Ringer were applied by FLIPR Tetra at 15 s time point. In order to determine antagonism, the cells were stimulated either with 100 nM adrenaline or noradrenaline and the test compounds were added to the cells 2 h before the experiment with the FLIPR Calcium 6 Assay reagent. […] Typically, there were four replicates at each concentration and six different dose levels. […] The minimum fluorescence value subtracted from the maximum value for each well was used in the calculations. ScreenWorks version 4.0 software was used for analyzing the results. Fitting of the antagonist dose-response results was performed with the free Hill equation and the IC50 values were fitted with IDBS XE software using model 200: y=(A+(B/(1+((x/C)̂D)))), where A is the curve maximum, B the curve minimum and C equals the EC50 value. D is slope factor (Hill). Kb was calculated with the Cheng-Prusoff equation Kb=A/((B/C)+1), where A is the IC50 of antagonist, B the concentration of agonist and C the EC50 of the agonist.

Row | Compound | IC50 (human alpha2A receptors) [nM] | Kb (human alpha2A receptors) [nM] | IC50 (human alpha2C receptors) [nM] | Kb (human alpha2C receptors) [nM]
1 | O=C1Cc2ccccc2N1[C@H]1CCCN(C[C@H]2COc3ccccc3O2)C1 [example 26, 1-((S)-1-(((S)-2,3-Dihydrobenzo[b][1,4]dioxin-2-yl)methyl)piperidin-3-yl)indolin-2-one] | > 10000 | > 449 | 27.9 | 2.81
2 | Cc1nc2c(F)cc(F)cc2n1[C@H]1CCCN(C[C@H]2COc3ccccc3O2)C1 [example 27, 1-((S)-1-(((S)-2,3-Dihydrobenzo[b][1,4]dioxin-2-yl)methyl)piperidin-3-yl)-4,6-difluoro-2-methyl-1H-benzo[d]imidazole] | > 10000 | > 449 | 20.8 | 2.09
3 | Cc1nc2cc(F)c(F)cc2n1[C@H]1CCCN(C[C@H]2COc3ccccc3O2)C1 [example 28, 1-((S)-1-(((S)-2,3-Dihydrobenzo[b][1,4]dioxin-2-yl)methyl)piperidin-3-yl)-5,6-difluoro-2-methyl-1H-benzo[d]imidazole] | > 10000 | > 449 | 5.43 | 0.547
4 | CC1CCC(=O)N1[C@H]1CCCN(C[C@H]2COc3ccccc3O2)C1 (stereo partly drawn) [example 30, 1-((S)-1-(((S)-2,3-Dihydrobenzo[b][1,4]dioxin-2-yl)methyl)piperidin-3-yl)-5-methylpyrrolidin-2-one] | > 1000 | > 45 | 1.11 | 0.11
5 | O=C1C(c2ccccc2)CCN1[C@H]1CCCN(C[C@H]2COc3ccccc3O2)C1 (stereo partly drawn) [example 31, 1-((S)-1-(((S)-2,3-Dihydrobenzo[b][1,4]dioxin-2-yl)methyl)piperidin-3-yl)-3-phenylpyrrolidin-2-one] | > 10000 | > 449 | > 10000 | > 1010
6 | O=C1CC(c2ccccc2)CN1[C@H]1CCCN(C[C@H]2COc3ccccc3O2)C1 (stereo partly drawn) [example 32, 1-((S)-1-(((S)-2,3-Dihydrobenzo[b][1,4]dioxin-2-yl)methyl)piperidin-3-yl)-4-phenylpyrrolidin-2-one] | 5210 | 234 | < 0.01 | < 0.001
7 | O=C1C2C3C=CC(C3)C2C(=O)N1[C@H]1CCCN(C[C@H]2COc3ccccc3O2)C1 (stereo partly drawn) [example 34, 2-((S)-1-(((S)-2,3-Dihydrobenzo[b][1,4]dioxin-2-yl)methyl)piperidin-3-yl)-3a,4,7,7a-tetrahydro-1H-4,7-methanoisoindole-1,3(2H)-dione] | 6860 | 308 | 0.02 | 0.002
8 | CC1(c2ccccc2)CC(=O)N([C@H]2CCCN(C[C@H]3COc4ccccc4O3)C2)C1=O (stereo partly drawn) [example 35, 1-((S)-1-(((S)-2,3-Dihydrobenzo[b][1,4]dioxin-2-yl)methyl)piperidin-3-yl)-3-methyl-3-phenylpyrrolidine-2,5-dione] | 193 | 9 | < 0.01 | –
9 | O=C1C2CC2(c2ccccc2)C(=O)N1[C@H]1CCCN(C[C@H]2COc3ccccc3O2)C1 (stereo partly drawn) [example 37, 3-((S)-1-(((S)-2,3-Dihydrobenzo[b][1,4]dioxin-2-yl)methyl)piperidin-3-yl)-1-phenyl-3-azabicyclo[3.1.0]hexane-2,4-dione] | > 10000 | > 449 | < 0.01 | < 0.001
10 | O=C1C(=O)N([C@H]2CCCN(C[C@H]3COc4ccccc4O3)C2)CC1c1ccccc1 (stereo partly drawn) [example 38, 1-((S)-1-(((S)-2,3-Dihydrobenzo[b][1,4]dioxin-2-yl)methyl)piperidin-3-yl)-4-phenylpyrrolidine-2,3-dione] | > 10000 | > 449 | 1.54 | 0.153
11 | O=C1C=C(c2ccccc2)CN1[C@H]1CCCN(C[C@H]2COc3ccccc3O2)C1 [example 39, 1-((S)-1-(((S)-2,3-Dihydrobenzo[b][1,4]dioxin-2-yl)methyl)piperidin-3-yl)-4-phenyl-1H-pyrrol-2(5H)-one] | > 10000 | > 449 | 1.79 | 0.181
12 | CC1=CC(=O)N([C@H]2CCCN(C[C@H]3COc4ccccc4O3)C2)C1 [example 40, 1-((S)-1-(((S)-2,3-Dihydrobenzo[b][1,4]dioxin-2-yl)methyl)piperidin-3-yl)-4-methyl-1H-pyrrol-2(5H)-one] | > 10000 | > 449 | 2.32 | 0.232
13 | O=C1C=C(c2ccc(F)cc2)CN1[C@H]1CCCN(C[C@H]2COc3ccccc3O2)C1 [example 41, 1-((S)-1-(((S)-2,3-Dihydrobenzo[b][1,4]dioxin-2-yl)methyl)piperidin-3-yl)-4-(4-fluorophenyl)-1H-pyrrol-2(5H)-one] | > 10000 | > 449 | 11.8 | 1.19
14 | CC1=C(c2ccccc2)C(=O)N([C@H]2CCCN(C[C@H]3COc4ccccc4O3)C2)C1 [example 42, 1-((S)-1-(((S)-2,3-Dihydrobenzo[b][1,4]dioxin-2-yl)methyl)piperidin-3-yl)-4-methyl-3-phenyl-1H-pyrrol-2(5H)-one] | > 10000 | > 449 | 331 | 33.3
15 | COc1ccccc1C1=CC(=O)N([C@H]2CCCN(C[C@H]3COc4ccccc4O3)C2)C1 [example 43, 1-((S)-1-(((S)-2,3-Dihydrobenzo[b][1,4]dioxin-2-yl)methyl)piperidin-3-yl)-4-(2-methoxyphenyl)-1H-pyrrol-2(5H)-one formate] | > 10000 | > 449 | < 0.01 | < 0.001
16 | O=C1N(c2ccccc2)CCN1[C@H]1CCCN(C[C@H]2COc3ccccc3O2)C1 [example 48, 1-((S)-1-(((S)-2,3-Dihydrobenzo[b][1,4]dioxin-2-yl)methyl)piperidin-3-yl)-3-phenylimidazolidin-2-one] | > 10000 | > 449 | 29.9 | 3.01
17 | O=C1N(Cc2ccccc2)CCN1[C@H]1CCCN(C[C@H]2COc3ccccc3O2)C1 [example 50, 1-Benzyl-3-((S)-1-(((S)-2,3-dihydrobenzo[b][1,4]dioxin-2-yl)methyl)piperidin-3-yl)imidazolidin-2-one] | 1020 | 46 | < 0.1 | < 0.01
18 | CN1C(=O)N([C@H]2CCCN(C[C@H]3COc4ccccc4O3)C2)CC1(C)C [example 51, 1-((S)-1-(((S)-2,3-Dihydrobenzo[b][1,4]dioxin-2-yl)methyl)piperidin-3-yl)-3,4,4-trimethylimidazolidin-2-one] | > 10000 | > 449 | 0.11 | 0.01
19 | CN1CCCN([C@H]2CCCN(C[C@H]3COc4ccccc4O3)C2)C1=O [example 54, 1-((S)-1-(((S)-2,3-Dihydrobenzo[b][1,4]dioxin-2-yl)methyl)piperidin-3-yl)-3-methyltetrahydropyrimidin-2(1H)-one] | > 10000 | > 449 | 4.95 | 0.5
20 | COc1cccc2c1CN([C@H]1CCCN(C[C@H]3COc4ccccc4O3)C1)C2=O [example 55, 2-((S)-1-(((S)-2,3-Dihydrobenzo[b][1,4]dioxin-2-yl)methyl)piperidin-3-yl)-4-methoxyisoindolin-1-one] | > 10000 | > 449 | 0.029 | 0.003
21 | O=C1c2ccc(F)c(F)c2CN1[C@H]1CCCN(C[C@H]2COc3ccccc3O2)C1 [example 56, 2-((S)-1-(((S)-2,3-Dihydrobenzo[b][1,4]dioxin-2-yl)methyl)piperidin-3-yl)-4,5-difluoroisoindolin-1-one hydrochloride] | > 10000 | > 449 | 0.519 | 0.052
22 | O=C1c2cccc(F)c2CN1[C@H]1CCCN(C[C@H]2COc3ccccc3O2)C1 [example 57, 2-((S)-1-(((S)-2,3-Dihydrobenzo[b][1,4]dioxin-2-yl)methyl)piperidin-3-yl)-4-fluoroisoindolin-1-one hydrochloride] | > 10000 | > 449 | 1.54 | 0.15
23 | O=C1c2ccc(F)cc2CN1[C@H]1CCCN(C[C@H]2COc3ccccc3O2)C1 [example 58, 2-((S)-1-(((S)-2,3-Dihydrobenzo[b][1,4]dioxin-2-yl)methyl)piperidin-3-yl)-5-fluoroisoindolin-1-one hydrochloride] | > 10000 | > 449 | 0.299 | 0.03
24 | Cc1ccc2c(c1)CN([C@H]1CCCN(C[C@H]3COc4ccccc4O3)C1)C2=O [example 59, 2-((S)-1-(((S)-2,3-Dihydrobenzo[b][1,4]dioxin-2-yl)methyl)piperidin-3-yl)-5-methylisoindolin-1-one formate] | > 10000 | > 449 | < 0.01 | < 0.001
